From patent US20050176826A1, “Use of asc-1 inhibitors to treat neurological and psychiatric disorders” (H. Lundbeck A/S, priority 2002, published 2005)

What was measured:
[1] = target: noradrenaline (NA) uptake (Rattus norvegicus, UniProt Q63380); experiment: [3H]noradrenalin uptake into rat cortical synaptosomes; assay type: biochemical; conditions: read-out: Ki, block of noradrenaline transport
Protocol: Inhibition of serotonin (5-HT), dopamine (DA) and noradrenaline (NA) uptake in vitro was measured in rat brain synaptosomes using a modification of a previously described protocol (Bøgesø et al., J Med Chem 1985, 28, 1817-1828). In brief, tritium labelled amines were used to measure uptake into synaptosomes from whole rat brain (excluding cerebellum) ([^3H]serotonin), rat striatal synaptosomes ([^3H]dopamine) or into rat cortical synaptosomes [^3H]noradrenalin. The dissected rat brain regions were homogenized in 0.40 M sucrose supplemented with 1 mM nialamid and centrifuged at 1000×g for 10 min. The supernatants were further centrifuged for 30 min at 20.000×g, 4° C. and resuspended in Krebs-Ringer buffer, pH 7.4 supplemented with 0.2 g/l ascorbic acid. Test compounds and membranes were added in 96 well plates and the incubation was started by adding either 10 nM [^3H]serotonin, 12.5 nM [^3H]dopamine or 10 nM [^3H]noradrenalin for 15 min at 37° C. except for [^3 H]dopamine uptake (5 min at 20° C.). Non-specific uptake was defined as uptake in the presence of 10 μM citalopram, 100 μM benttropin or 20 μM talsupram, respectively and accounted for 5-10% of total uptake. Samples were filtered over Whatman GF/C filters and the IC50's were estimated using non-linear regression analysis from at least 8 points dose-response curves with triplicate determinations.

human GlyT-1B = target: T1, human GlyT-1B (Homo sapiens, UniProt P48067); experiment: [3H]-glycine uptake into CHO cells expressing human GlyT-1B; assay type: cell-based
T1 construct: expressed in transfected cells; host or cells: CHO cells
T1 sequence (P48067 1-652 isoform P48067-3): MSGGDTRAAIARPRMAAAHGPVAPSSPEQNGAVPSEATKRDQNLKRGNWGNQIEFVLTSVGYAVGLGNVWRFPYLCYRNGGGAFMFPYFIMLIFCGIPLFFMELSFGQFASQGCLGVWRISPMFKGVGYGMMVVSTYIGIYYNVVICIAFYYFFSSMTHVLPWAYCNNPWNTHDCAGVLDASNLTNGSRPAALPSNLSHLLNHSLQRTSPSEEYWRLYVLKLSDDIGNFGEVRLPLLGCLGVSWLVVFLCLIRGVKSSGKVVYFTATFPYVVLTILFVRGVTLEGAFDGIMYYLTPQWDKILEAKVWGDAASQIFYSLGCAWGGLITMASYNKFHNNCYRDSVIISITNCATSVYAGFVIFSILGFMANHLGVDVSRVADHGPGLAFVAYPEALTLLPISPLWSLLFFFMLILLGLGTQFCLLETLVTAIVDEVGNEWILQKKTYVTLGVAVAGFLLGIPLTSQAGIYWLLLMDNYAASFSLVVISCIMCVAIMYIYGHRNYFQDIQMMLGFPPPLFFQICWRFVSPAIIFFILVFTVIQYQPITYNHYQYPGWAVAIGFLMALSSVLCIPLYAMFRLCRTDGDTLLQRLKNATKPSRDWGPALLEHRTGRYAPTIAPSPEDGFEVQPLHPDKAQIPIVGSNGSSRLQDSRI
Protocol: Measurements of [^3H]-glycine uptake into CHO cells expressing human GlyT-1B were performed in 96 well plates using 1 μCi [^3H]-glycine/well. Cells were plated 2 days before the experiment and washed twice with assay buffer (composition: 150 mM NaCl, 10 mM glucose, 2.5 mM KCl, 1 mM CaCl2, 2.5 mM MgSO4, 10 mM HEPES, pH 7.4). Test compounds were added 10 min before radioligand and cells were incubated for a further 15 min at 37° C. Cells were washed as described for [3 H]-D-serine uptake into asc-1 cells. Non-specific uptake was defined as uptake in the presence of 100 μM N-methyl-N-(phenyl-trifluoromethylphenoxy)propan-1-yl-glycine.

noradrenaline (NA) uptake, sequence (Q63380 1-617): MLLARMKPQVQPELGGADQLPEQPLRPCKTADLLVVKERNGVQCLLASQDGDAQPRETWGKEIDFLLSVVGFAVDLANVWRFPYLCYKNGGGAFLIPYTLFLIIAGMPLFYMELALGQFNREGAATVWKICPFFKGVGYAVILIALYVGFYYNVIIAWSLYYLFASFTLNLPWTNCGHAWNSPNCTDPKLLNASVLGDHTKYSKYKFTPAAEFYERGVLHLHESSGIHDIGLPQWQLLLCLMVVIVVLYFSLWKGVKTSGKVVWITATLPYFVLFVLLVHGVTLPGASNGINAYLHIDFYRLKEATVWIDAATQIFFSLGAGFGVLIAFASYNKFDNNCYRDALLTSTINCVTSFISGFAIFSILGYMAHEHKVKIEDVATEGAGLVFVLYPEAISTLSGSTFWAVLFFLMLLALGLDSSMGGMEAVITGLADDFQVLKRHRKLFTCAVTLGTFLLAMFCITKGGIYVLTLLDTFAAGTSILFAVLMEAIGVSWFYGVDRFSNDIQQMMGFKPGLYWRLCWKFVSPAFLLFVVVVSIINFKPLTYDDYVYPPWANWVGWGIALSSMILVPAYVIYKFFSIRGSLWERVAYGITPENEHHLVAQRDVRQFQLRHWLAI

CSCC(N)C(=O)O (stereo in doubt) [(S)-methyl-L-cysteine]
Ki [1]: > 1 mM | Ki (human GlyT-1B): > 100 µM
